The values below come from patent US8128963B2, “Methods for treating ischemic disorders using carbon monoxide” (The Trustees of Columbia University in the City Of New York, priority 1999, dated 2012).

Series [1] deals with T1, Factor IXa (Homo sapiens, UniProt P00740).
T1 construct: made in house
The experiment in a line: Procoagulant activity of the prepared Factor IXai. The class given is biochemical. As to conditions: final product. As to the method: Preparation of Factor IXai ^13: Factor IXai was prepared by selectively modifying the active site histidine residue on Factor IXa, using dansyl-glu-gly-arg-chloromethylketone. Proplex was applied to a preparative column containing immobilized calcium-dependent monoclonal antibody to Factor IX. The column was washed, eluted with EDTA-containing buffer, and Factor IX in the eluate (confirmed as a single band on SDS-PAGE) was then activated by applying Factor XIa (incubating in the presence of CaCl2). Purified Factor IXa was reacted with a 100-fold molar excess of dansyl-glu-gly-arg chloromethylketone, and the mixture dialyzed. […] This material (Factor IXai) was then used for experiments following filtration (0.2 μm) and chromatography on DeToxi-gel columns, to remove any trace endotoxin contamination (in sample aliquots, there was no detectable lipopolysaccharide). IXai was subsequently frozen into aliquots at −80° C. until the time of use. For those experiments in which IXai was used, it was given as a single intravenous bolus at the indicated times and at the indicated doses.

Series [2] can be described thus: Protime and APTT in mice. To be noted: 300 μg/kg, n=7. The class given is in vivo, mouse. The text has this: The potency of Factor IXai as an anticoagulant agent stems from the integral role of activated Factor IX in the coagulation cascade.
Series [3] deals with mouse model of cerebral ischemia and reperfusion (stroke). The class given is in vivo. As to the method: In stroke and other ischemic disorders, there may be clinical benefit derived by lysing an existing thrombus, but there is also the potentially devastating complication of hemorrhage. In the current experiments, the mouse model of cerebral ischemia and reperfusion (stroke) was used. […]
Murine stroke model. Transient focal cerebral ischemia was induced in mice by intralumenal occlusion of the middle cerebral artery (45 minutes) and reperfusion (22 hrs) as previously reported ^7. Serial measurements of relative cerebral blood flow (CBF) were recorded via laser doppler flowmetry ^7, and infarct volumes (% ipsilateral hemisphere) determined by planimetric/volumetric analysis of triphenyl tetrazolium chloride (TTC)-stained serial cerebral sections ^7.
Preparation of Factor IXai ^13: Factor IXai was prepared by selectively modifying the active site histidine residue on Factor IXa, using dansyl-glu-gly-arg-chloromethylketone. Proplex was applied to a preparative column containing immobilized calcium-dependent monoclonal antibody to Factor IX. […] Purified Factor IXa was reacted with a 100-fold molar excess of dansyl-glu-gly-arg chloromethylketone, and the mixture dialyzed. […] IXai was subsequently frozen into aliquots at −80° C. until the time of use. For those experiments in which IXai was used, it was given as a single intravenous bolus at the indicated times and at the indicated doses.

For series [4], the system named is cross-linked fibrin. Kind of series: Fibrin immunoblotting in stroke brain. To be noted: 300 μg/kg prior to stroke. The class given is in vivo, mouse. As to the method: Fibrin immunoblotting/immunostaining. The accumulation of fibrin was measured following sacrifice (of fully heparinized animals) using immunoblotting/immunostaining procedures which have been recently described and validated ^9. Because fibrin is extremely insoluble, brain tissue extracts where prepared by plasmin digestion, then applied to a standard SDS-polyacrylamide gel for electrophoresis, followed by immunoblotting using a polyclonal rabbit anti-human antibody prepared to gamma-gamma chain dimers present in cross-linked fibrin which can detect murine fibrin, with relatively little cross-reactivity with fibrinogen ^10. Fibrin accumulation was reported as an ipsilateral to contralateral ratic. In additional experiments, brains were embedded in paraffin, sectioned, and immunostained using the same anti-fibrin antibody.
A general note: A western blot detects proteins with antibodies after separation by electrophoresis.

The test system of series [5] is intracerebral hemorrhage. The class given is in vivo, mouse. The protocol:
The hemoglobin content of brains subjected to the experimental procedures below was quantified using a spectrophotometric assay as follows. Whole brain tissue was obtained from freshly euthanized control or experimental animals, and each brain was treated individually as follows. Distilled water (250 μl) was added to each brain, followed by homogenization, for 30 sec (Brinkman Instruments, Inc., Westbury, N.Y.), sonification on ice with a pulse ultrasonicator for 1 minute (SmithKline Corporation, Collegeville, Pa.), and centrifugation at 13,000 rpm for 30 minutes (Baxter Scientific Products, Deerfield, Ill.). After collecting the hemoglobin-containing supernatant, 80 μl of Drabkin's reagent (purchased from Sigma Diagnostics, St. Louis, Mo; K3Fe(CN)6 200 mg/L, KCN 50 mg/L, NaHCO3 1 g/L, pH 8.6 ^25) was added to a 20 μl aliquot and allowed to stand for 15 minutes. This reaction converts hemoglobin to cyanomethemoglobin, which has an absorbance peak at 540 nm, and whose concentration can then be assesses by the optical density of the solution at ≈550 nm wavelength ^26. To validate that the measured absorbance following these procedures reflects the amount of hemoglobin, known quantities of bovine erythrocyte hemoglobin (Sigma, St. Louis, Mo.) were analyzed using similar procedures alongside every brain tissue assay. As an additional measure, blood was obtained from control mice by cardiac puncture following anesthesia. Incremental aliquots of this blood were then added to freshly homogenized brain tissue obtained from untreated mice to generate a standard absorbance curve.
Focal cerebral ischemia was produced in animals by transient right middle cerebral artery occlusion using a method previously described in detail ^28,29. Briefly, a heat-blunted 12 or 13 mm 5-0 or 6-0 gauge nylon suture was passed into the right internal carotid artery to the level of the middle cerebral artery. After 45 minutes, the occluding suture was removed to reestablish perfusion. Immediately following removal of the occluding suture, animals received either intravenous tissue plasminogen activator (10 mg/kg in 0.2 ml normal saline solution, Stroke+rt-PA) or normal saline solution (Stroke+Saline) given by dorsal penile vein injection. At 24 hours, brain tissue was harvested immediately after rapid anesthetized decapitation. […] The other half of each brain was immersed in saline for an identical duration, and then subjected to the procedures described above for the spectrophotometric hemoglobin assay.
The degree of ICH was first scored visually by a blinded observer. […] Sections were inspected by a blinded observer and brains were given an ICH score from a graded scale based on maximal hemorrhage diameter seen on any of the sections [ICH score 0, no hemorrhage; 1, <1 mm; 2, 1-2 mm; 3, >2-3 mm; 4, >3 mm]. Slices from each brain were then pooled, homogenized, and then treated according to the procedures described above for the spectrophotometric hemoglobin assay.
Spectrophotometric hemoglobin assay and visual ICH score: ICH was quantified by a spectrophotometric-based assay which we have developed and validated ^11,12. In brief, mouse brains were homogenized, sonicated, centrifuged, and methemoglobin in the supernatants converted (using Drabkin's reagent) to cyanomethemoglobin, the concentration of which was assessed by measuring O.D. at 550 nm against a standard curve generated with known amounts of hemoglobin. […]

Series [6] has as its system left circumflex coronary artery occlusion. To be noted: dogs; cited from earlier work.
Series [7] relates to platelet accumulation in ipsilateral hemisphere. The experiment in a line: 111Indium-platelet accumulation in stroke. The class given is in vivo, mouse. As to conditions: 300 μg/kg prior to occlusion, vs vehicle. As to the method: ^111Indium-platelet studies: Platelet accumulation was determined using ^111Indium labeled platlets, collected and prepared as previously described ^8. Immediately prior to surgery, mice were given 5×10^6 111In-labeled-platelets intravenously; deposition was quantified after 24 hours by as ipsilateral cpm/contralateral cpm.

Series [8] deals with stroke. To be noted: within 2 hours of stroke; cited from earlier work.
The subject of series [9] is mouse model of stroke. The experiment in a line: Mouse model of stroke, thrombolytic versus P-selectin antagonist. To be noted: in vivo. The text has this:
The present invention provides for treatment of ischemic disorders by inhibiting the ability of the neutrophil, monocyte or other white blood cell to adhere properly. This may be accomplished removing the counter ligand, such as CD18. […] The endothelial cells on the surface of the vessels in the subject may also be a target for treatment. […] The present invention may be used in conjunction with a thrombolytic therapy to increase efficacy of such therapy or to enable lower doses of such therapy to be administered to the subject so as to reduce side effects of the thrombolytic therapy.

The test system of series [10] is acute ischemic stroke. As to conditions: within 7 hours of stroke onset; cited from earlier work.
[11] abbreviates: 300 μg/kg i.v. just prior to surgery, 24 hours.
Where [12] appears, read: Table II, Experimental group mean.

“Also recorded” adds a separate entry of the source.

T1 sequence (P00740 227-461 limits assumed): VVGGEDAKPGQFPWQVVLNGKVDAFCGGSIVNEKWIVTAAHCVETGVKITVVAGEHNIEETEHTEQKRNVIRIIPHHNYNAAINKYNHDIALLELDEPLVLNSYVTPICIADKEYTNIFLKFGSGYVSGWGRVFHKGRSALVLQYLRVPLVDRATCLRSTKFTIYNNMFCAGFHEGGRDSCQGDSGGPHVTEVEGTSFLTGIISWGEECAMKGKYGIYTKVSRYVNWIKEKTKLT
T1 sequence (P00740 47-191 partner limits assumed): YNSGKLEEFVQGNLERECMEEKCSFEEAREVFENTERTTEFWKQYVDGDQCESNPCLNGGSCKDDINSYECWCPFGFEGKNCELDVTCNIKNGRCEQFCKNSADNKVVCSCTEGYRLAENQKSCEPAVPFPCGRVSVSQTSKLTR

For “Factor IXai: Factor IXa with active site histidine modified by dansyl-glu-gly-arg-chloromethylketone; competitive inhibitor of Factor IXa”, the procoagulant activity result in [1] was “devoid of procoagulant activity”. Further, in series [2], the APTT was found to be 79.9±8.9 and the “PT (protime)” value worked out at 13.4±0.7. In addition, the cerebral infarction volume result in series [3] (300 μg/kg given after MCA occlusion, following removal of the occluding suture, vs vehicle) is on record as “significantly reduce cerebral infarction volumes”. The cerebral infarct volume result in series [3] (300 μg/kg i.v. immediately prior to stroke, vs controls) is listed as “smaller infarct volumes; also recorded: reduce cerebral infarct volumes”. For the same substance, in [3] (setting [11]), the mortality result was “reduced mortality” and the neurological deficits result is listed as “less neurological deficits”. Besides, in series [3] (setting [12]), the inf vol is given as 3.47, the “occ dop 1” value is reported as 0.16, the “occ dop 2” value is on record as 0.43 and the reper dop is 0.53. The same substance registered a sac dop in series [3] (Table II, Experimental group mean, at sacrifice) of 0.75. Moreover, the dopp in [3] (Table II, Experimental group mean, baseline relative doppler flow) worked out at 1.04. In series [3] (Table II, Experimental group mean, neurological grade), this substance gave a grade of 1.67. For the same substance, in series [3] (doses 300, 600, 1200 μg/kg immediately prior to stroke), the “optimal dose (infarct volume dose-response)” value was found to be 0.6 mg/kg. In addition, in series [3] (mouse, in vivo), the “I/C Ratio” value was found to be 1.08. The “cerebral blood flow / perfusion at 24 hours” value in [3] (mouse, in vivo, iv) is listed as “improved cerebral perfusion; also recorded: significant increase in CBF”. In addition, in series [4], the “ipsilateral accumulation of fibrin (immunoblot)” value is listed as “no apparent increase”. For the same substance, the apparent intracerebral hemorrhage result in [5] (setting [11]) was “free of apparent intracerebral hemorrhage”. Further, the “ICH (spectrophotometric assay, corroborated by visual score)” value in [5] (highest dose tested, 1200 μg/kg) is given as “increase in ICH”. For the same substance, in series [5] (mouse, in vivo), the “ICH (spectrophotometric hemoglobin assay)” value is “no significant increase in ICH”. Besides, in series [6], the “activated partial thromboplastin time (APTT)” value was “did not prolong” and the “progressive coronary artery occlusion after electric current” value is reported as “effective at preventing progressive coronary artery occlusion”. Moreover, the “accumulation of radiolabelled platelets in the ipsilateral hemisphere” value in series [7] is given as “significant reduction”.
On to “rt-PA: recombinant human tissue plasminogen activator, Genentech”, for which the “reduction of infarct size” value in series [8] was “up to 77%”. In series [9], the hemorrhaging result was “some visible hemorrhaging” and the stroke disorder entry is “improvement of the stroke disorder”. In [10], the “rate of hemorrhagic conversion” value was 7-20%. For the same substance, the “increase of OD vs physiological saline solution” value in [5] (i.v. after reperfusion, 10 mg/kg) worked out at 1.8 fold. For the same substance, the “visual ICH score” value in [5] (stroke model, rt-PA after reperfusion) is on record as “increase in the visual ICH score”.
